pIC50: −log10 of the molar value. Like-named read-outs stand apart in the source and are kept apart here.
Legend:
[1] = target: GSK3α (GST-full length GSK3α) (Homo sapiens (Human), UniProt P49840); assay: GSK3α TR-FRET kinase assay; assay type: biochemical
Outline: (§1)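 Readout: anti-pSer641 Tb antibody/streptavidin-d2 signal after 60 min, expressed as 665/615 ratio and fitted versus log concentration for IC50. Enzyme: 1 nM GST-GSK3 (α or β), compound-preincubated 30 min. Conditions: pH 7.5 Tris buffer with MgCl2, DTT, BSA; ATP at 4 or 2 μM, or 1 mM; 100 min.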

[2] = target: GSK3b (GST-full length GSK3b) (Homo sapiens (Human), UniProt P49841); assay: GSK3b TR-FRET kinase assay; assay type: biochemical
Outline: as §1

[3] = 1 nM GSK3α, 4 μM ATP, 30 minute preincubation, Table 16, read-out: GSK3-A TR-FRET BIOCHEMICAL (TR-FRET)
[4] = 1 nM GSK3b, 2 μM ATP, 30 minute preincubation, Table 16, read-out: GSK3-B TR-FRET BIOCHEMICAL (TR-FRET)
[5] = GSK3-A (TR-FRET 1 mM ATP), GMean, IC50, 1 mM ATP, geometric mean
[6] = GSK3-B (TR-FRET 1 mM ATP), GMean, IC50, 1 mM ATP, geometric mean
[7] = 1 nM GSK3α, 4 μM ATP, 30 minute preincubation, Table 16, read-out: GSK3-A TR-FRET BIOCHEMICAL (TR-FRET), IC50
[8] = 1 nM GSK3b, 2 μM ATP, 30 minute preincubation, Table 16, read-out: GSK3-B TR-FRET BIOCHEMICAL (TR-FRET), IC50
[9] = 1 nM GSK3α, 4 μM ATP, 30 minute preincubation, read-out: GSK3-A TR-FRET BIOCHEMICAL (TR-FRET), IC50
[10] = 1 nM GSK3b, 2 μM ATP, 30 minute preincubation, read-out: GSK3-B TR-FRET BIOCHEMICAL (TR-FRET), IC50
[11] = read-out: GSK3-A (TR-FRET 1 mM ATP), GMean, IC50, 1 mM ATP, geometric mean
[12] = read-out: GSK3-B (TR-FRET 1 mM ATP), GMean, IC50, 1 mM ATP, geometric mean

Chain of GSK3α (GST-full length GSK3α) (P49840 whole entry): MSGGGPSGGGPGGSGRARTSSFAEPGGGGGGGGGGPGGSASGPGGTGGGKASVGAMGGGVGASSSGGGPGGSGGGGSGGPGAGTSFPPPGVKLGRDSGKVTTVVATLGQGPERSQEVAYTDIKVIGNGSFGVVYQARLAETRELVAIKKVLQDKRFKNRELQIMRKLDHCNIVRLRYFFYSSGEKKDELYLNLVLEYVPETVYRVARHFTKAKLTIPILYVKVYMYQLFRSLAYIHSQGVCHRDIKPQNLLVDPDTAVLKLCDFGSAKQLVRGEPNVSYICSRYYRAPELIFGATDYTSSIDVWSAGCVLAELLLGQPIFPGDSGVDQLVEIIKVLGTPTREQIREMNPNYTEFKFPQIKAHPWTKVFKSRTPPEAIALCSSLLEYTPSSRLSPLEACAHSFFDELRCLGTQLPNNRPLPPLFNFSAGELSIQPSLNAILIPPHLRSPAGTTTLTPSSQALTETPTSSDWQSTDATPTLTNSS
Chain of GSK3b (GST-full length GSK3b) (P49841 whole entry): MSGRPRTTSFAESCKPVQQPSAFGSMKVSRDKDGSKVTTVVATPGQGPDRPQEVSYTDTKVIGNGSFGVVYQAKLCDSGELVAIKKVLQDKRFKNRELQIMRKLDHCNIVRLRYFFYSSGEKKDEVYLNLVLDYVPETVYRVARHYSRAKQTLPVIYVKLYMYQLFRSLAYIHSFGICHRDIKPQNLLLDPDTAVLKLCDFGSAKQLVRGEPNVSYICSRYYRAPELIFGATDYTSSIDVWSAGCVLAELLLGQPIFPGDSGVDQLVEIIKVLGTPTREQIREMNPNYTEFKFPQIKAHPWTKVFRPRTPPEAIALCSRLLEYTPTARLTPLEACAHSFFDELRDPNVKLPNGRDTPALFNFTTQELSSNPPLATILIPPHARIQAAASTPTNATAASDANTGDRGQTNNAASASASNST

Row | pIC50 [1, 7] | pIC50 [2, 8] | further results | Structure (SMILES)
1 | – | – | pIC50 [1, 3]: ≥ 7.00; pIC50 [2, 4]: ≥ 7.00 | CC1(C)CC(=O)C2=C(C1)Nc1n[nH]cc1[C@@]21CCN(S(=O)(=O)CC2CC2)C1 [Compound 951724]
2 | – | – | pIC50 [1, 3]: ≥ 7.00; pIC50 [1, 5]: 6.00 to 7.00; pIC50 [2, 4]: ≥ 7.00; pIC50 [2, 6]: 5.30 to 6.00 | Cn1cc(S(=O)(=O)N2CC[C@]3(C2)C2=C(CC(C)(C)CC2=O)Nc2n[nH]cc23)cn1 [Compound 951725]
3 | – | – | pIC50 [1, 3]: ≥ 7.00; pIC50 [1, 5]: 5.30 to 6.00; pIC50 [2, 4]: ≥ 7.00; pIC50 [2, 6]: 5.30 to 6.00 | Cn1cc(S(=O)(=O)N2CC[C@@]3(C2)C2=C(CC(C)(C)CC2=O)Nc2n[nH]cc23)cn1 [Compound 951726]
4 | ≥ 7.00 | 6.00 to 7.00 | – | CC[C@]1(c2cccc(N(C)c3ncccn3)c2)C2=C(CC(C)(C)NC2=O)Nc2n[nH]c(C(F)F)c21 [Compound 951736]
5 | – | – | pIC50 [1, 9]: ≥ 7.00; pIC50 [1, 5]: ≥ 7.00; pIC50 [2, 10]: ≥ 7.00; pIC50 [2, 6]: 6.00 to 7.00 | CC1(C)CC(=O)C2=C(C1)Nc1n[nH]cc1[C@]21CCN(S(=O)(=O)c2ccccc2)C1 [Compound 951787]
6 | – | – | pIC50 [1, 3]: ≥ 7.00; pIC50 [1, 5]: 6.00 to 7.00; pIC50 [2, 4]: ≥ 7.00; pIC50 [2, 6]: 5.30 to 6.00 | CC1(C)CC(=O)C2=C(C1)Nc1n[nH]cc1[C@@]21CCN(S(=O)(=O)c2ccccc2)C1 [Compound 951788]
7 | – | – | pIC50 [1, 9]: ≥ 7.00; pIC50 [1, 5]: 6.00 to 7.00; pIC50 [2, 10]: ≥ 7.00; pIC50 [2, 6]: 6.00 to 7.00 | COc1cccc(S(=O)(=O)N2CC[C@]3(C2)C2=C(CC(C)(C)CC2=O)Nc2n[nH]cc23)c1 [Compound 951789]
8 | – | – | pIC50 [1, 3]: ≥ 7.00; pIC50 [2, 4]: ≥ 7.00 | COc1cccc(S(=O)(=O)N2CC[C@@]3(C2)C2=C(CC(C)(C)CC2=O)Nc2n[nH]cc23)c1 [Compound 951790]
9 | 6.00 to 7.00 | 5.30 to 6.00 | – | CCC1(c2cccc(-c3cnn(CC4CCOC4)c3)c2)C2=C(CC(C)(C)NC2=O)Nc2n[nH]cc21 (stereo not shown) [Compound 951836]
10 | 6.00 to 7.00 | 6.00 to 7.00 | – | CC[C@]1(c2cccc(-c3cnn(-c4ccccc4)c3C(F)(F)F)c2)C2=C(CC(C)(C)NC2=O)Nc2n[nH]cc21 [Compound 951837]
11 | 6.00 to 7.00 | 5.30 to 6.00 | – | CC[C@]1(c2cccc(-c3cnn(Cc4ccc(OC)cc4)c3)c2)C2=C(CC(C)(C)NC2=O)Nc2n[nH]cc21 [Compound 951838]
12 | – | – | pIC50 [1, 3]: ≥ 7.00; pIC50 [2, 4]: 6.00 to 7.00 | CC1(C)CC(=O)C2=C(Nc3n[nH]cc3C23CCN(S(=O)(=O)c2ccccc2C(F)F)CC3)[C@H]1F [Compound 951839]
13 | 6.00 to 7.00 | 5.30 to 6.00 | – | CCC1(c2cccc(-c3cc(C(C)C)nn3C)c2)C2=C(CC(C)(C)NC2=O)Nc2n[nH]cc21 (stereo not shown) [Compound 951842]
14 | 6.00 to 7.00 | < 5.30 | – | CC[C@]1(c2cccc(-c3cc(C(C)(C)C)nn3C)c2)C2=C(CC(C)(C)NC2=O)Nc2n[nH]cc21 [Compound 951843]
15 | ≥ 7.00 | 6.00 to 7.00 | – | CC[C@]1(c2cccc(-c3c(C#N)c(C)nn3C)c2)C2=C(CC(C)(C)NC2=O)Nc2n[nH]cc21 [Compound 951844]
16 | 6.00 to 7.00 | 6.00 to 7.00 | – | CC[C@@]1(c2cccc(-c3cc(C)nn3-c3ccccc3)c2)C2=C(CC(C)(C)NC2=O)Nc2n[nH]cc21 [Compound 951845]
17 | – | – | pIC50 [1, 3]: ≥ 7.00; pIC50 [2, 4]: 6.00 to 7.00 | CC1(C)CC(=O)C2=C(Nc3n[nH]cc3C23CCN(S(=O)(=O)c2ccccc2C(F)F)CC3)[C@@H]1F [Compound 951846]
18 | ≥ 7.00 | 6.00 to 7.00 | – | CC[C@]1(c2cccc(-c3cnn(Cc4cccc(C(F)(F)F)c4)c3)c2)C2=C(CC(C)(C)NC2=O)Nc2n[nH]cc21 [Compound 951848]
19 | ≥ 7.00 | 6.00 to 7.00 | – | CCC1(c2cccc(-c3cnn(Cc4ccc(C(F)(F)F)cc4)c3)c2)C2=C(CC(C)(C)NC2=O)Nc2n[nH]cc21 (stereo not shown) [Compound 951849]
20 | – | – | pIC50 [1, 9]: ≥ 7.00; pIC50 [1, 5]: 6.00 to 7.00; pIC50 [2, 10]: ≥ 7.00; pIC50 [2, 6]: 6.00 to 7.00 | CC1(C)CC(=O)C2=C(C1)Nc1n[nH]cc1[C@]21CCN(S(=O)(=O)c2cccc(F)c2)C1 [Compound 951861]
21 | – | – | pIC50 [1, 3]: ≥ 7.00; pIC50 [2, 4]: ≥ 7.00 | CC1(C)CC(=O)C2=C(C1)Nc1n[nH]cc1[C@@]21CCN(S(=O)(=O)c2cccc(F)c2)C1 [Compound 951862]
22 | – | – | pIC50 [1, 9]: ≥ 7.00; pIC50 [1, 5]: 6.00 to 7.00; pIC50 [2, 10]: ≥ 7.00; pIC50 [2, 6]: 6.00 to 7.00 | Cc1cccc(S(=O)(=O)N2CC[C@]3(C2)C2=C(CC(C)(C)CC2=O)Nc2n[nH]cc23)c1 [Compound 951863]
23 | – | – | pIC50 [1, 3]: ≥ 7.00; pIC50 [1, 5]: 6.00 to 7.00; pIC50 [2, 4]: ≥ 7.00; pIC50 [2, 6]: 5.30 to 6.00 | Cc1cccc(S(=O)(=O)N2CC[C@@]3(C2)C2=C(CC(C)(C)CC2=O)Nc2n[nH]cc23)c1 [Compound 951864]

Row | pIC50 [1, 7] | pIC50 [2, 8] | further results | Structure (SMILES)
24 | ≥ 7.00 | 6.00 to 7.00 | – | CC[C@@]1(c2cccc(C(F)(F)F)c2)C2=C(CCN(c3cc(C)n(C)n3)C2=O)Nc2n[nH]cc21 [Compound 951939]
25 | 6.00 to 7.00 | 5.30 to 6.00 | – | CC[C@]1(c2cccc(C(F)F)c2)C2=C(CC(C)(C)NC2=O)Nc2n[nH]c(C(F)(F)F)c21 [Compound 951946]
26 | ≥ 7.00 | ≥ 7.00 | pIC50 [1, 11]: ≥ 7.00; pIC50 [2, 12]: 6.00 to 7.00 | CCC1(c2cccc(C(F)F)c2)C2=C(CC(C)(C)NC2=O)Nc2n[nH]c(C(F)(F)F)c21 (stereo not shown) [Compound 951948]
27 | < 5.30 | < 5.30 | – | CC[C@]1(c2cccc(C(F)(F)F)c2)C2=C(CCN(c3cc(C)n(C)n3)C2=O)Nc2n[nH]cc21 [Compound 951954]
28 | 6.00 to 7.00 | 5.30 to 6.00 | – | CC[C@]1(c2cccc(-c3cnn(-c4ccncn4)c3)c2)C2=C(CC(C)(C)NC2=O)Nc2n[nH]cc21 [Compound 952016]
29 | 6.00 to 7.00 | 5.30 to 6.00 | – | CC[C@]1(c2cccc(-c3cc(C(F)(F)F)nn3C)c2)C2=C(CC(C)(C)NC2=O)Nc2n[nH]cc21 [Compound 952018]
30 | ≥ 7.00 | 6.00 to 7.00 | – | CC[C@]1(c2cccc(-c3cnn4c3OCCC4)c2)C2=C(CC(C)(C)NC2=O)Nc2n[nH]cc21 [Compound 952019]
31 | ≥ 7.00 | ≥ 7.00 | pIC50 [1, 11]: 6.00 to 7.00; pIC50 [2, 12]: < 5.30 | CC[C@]1(c2cccc(-c3c(C)cnn3C)c2)C2=C(CC(C)(C)NC2=O)Nc2n[nH]cc21 [Compound 952021]
32 | 6.00 to 7.00 | 5.30 to 6.00 | – | CCC1(c2cccc(-c3cnn(CCN4CCCC4)c3)c2)C2=C(CC(C)(C)NC2=O)Nc2n[nH]cc21 (stereo not shown) [Compound 952022]
33 | 6.00 to 7.00 | 5.30 to 6.00 | – | CCC1(c2cccc(-c3cc(C4CCCC4)nn3C)c2)C2=C(CC(C)(C)NC2=O)Nc2n[nH]cc21 (stereo not shown) [Compound 952023]
34 | 6.00 to 7.00 | < 5.30 | – | CC[C@]1(c2cccc(-c3cnn(-c4cccnc4)c3)c2)C2=C(CC(C)(C)NC2=O)Nc2n[nH]cc21 [Compound 952024]
35 | ≥ 7.00 | ≥ 7.00 | pIC50 [1, 11]: ≥ 7.00; pIC50 [2, 12]: 5.30 to 6.00 | CC[C@]1(c2cccc(-c3ccncc3C(F)(F)F)c2)C2=C(CC(C)(C)NC2=O)Nc2n[nH]cc21 [Compound 952025]
36 | 5.30 to 6.00 | < 5.30 | – | CCC1(c2cccc(N(C)c3ncccn3)c2)C2=C(CC(C)(C)C2=O)Nc2n[nH]cc21 (stereo not shown) [Compound 952205]
37 | 6.00 to 7.00 | 5.30 to 6.00 | – | CCC1(c2cccc(-c3cnn(-c4cnccn4)c3)c2)C2=C(CC(C)(C)NC2=O)Nc2n[nH]cc21 (stereo not shown) [Compound 952207]
38 | 6.00 to 7.00 | < 5.30 | – | CC[C@]1(c2cccc(-c3cnn(CC(=O)N(C)C)c3)c2)C2=C(CC(C)(C)NC2=O)Nc2n[nH]cc21 [Compound 952208]
39 | ≥ 7.00 | 6.00 to 7.00 | – | CCC1(c2cccc(-c3cnn(CC#N)c3)c2)C2=C(CC(C)(C)NC2=O)Nc2n[nH]cc21 (stereo not shown) [Compound 952210]
40 | ≥ 7.00 | 6.00 to 7.00 | pIC50 [1, 11]: 6.00 to 7.00; pIC50 [2, 12]: < 5.30 | CC[C@@]1(c2cccc(N(C)c3ncccn3)c2)C2=C(CC(C)(C)C2=O)Nc2n[nH]cc21 [Compound 952212]
41 | ≥ 7.00 | 6.00 to 7.00 | – | CC[C@]1(c2cccc(C(F)(F)F)c2)C2=C(CCN(c3cnn(C)c3C)C2=O)Nc2n[nH]cc21 [Compound 952257]
42 | < 5.30 | < 5.30 | – | CCC1(c2cccc(C(F)(F)F)c2)C2=C(CCN(c3cnn(C)c3C)C2=O)Nc2n[nH]cc21 (stereo not shown) [Compound 952262]
43 | ≥ 7.00 | ≥ 7.00 | pIC50 [1, 11]: 6.00 to 7.00; pIC50 [2, 12]: 5.30 to 6.00 | CC[C@]1(c2cccc(-c3c(C#N)cnn3C)c2)C2=C(CC(C)(C)NC2=O)Nc2n[nH]c(C)c21 [Compound 952410]
44 | 5.30 to 6.00 | < 5.30 | – | CC[C@]1(c2cccc(-c3cc(-c4ccccc4)nn3C(C)C)c2)C2=C(CC(C)(C)NC2=O)Nc2n[nH]cc21 [Compound 952411]
45 | – | – | pIC50 [1, 3]: 6.00 to 7.00; pIC50 [2, 4]: 6.00 to 7.00 | CC1(C)CC(=O)C2=C(C1)Nc1n[nH]cc1[C@@]21CC[C@H](C(F)(F)F)C1 [Compound 952434]
46 | – | – | pIC50 [1, 3]: ≥ 7.00; pIC50 [2, 4]: 6.00 to 7.00 | CC1(C)CC(=O)C2=C(C1)Nc1n[nH]cc1[C@]21CC[C@H](C(F)(F)F)C1 [Compound 952435]
